This note sets out measurements from US20170224679A1, “Use of CXCR2 Antagonists For The Prevention and/or Treatment of Chemotherapy Induced Peripheral Neuropathy (CIPN)” (GlaxoSmithKline Intellectual Property Development Limited, priority 2014, published 2017).

For assay [1], the target named is T1, CXCR2 receptor (Homo sapiens, UniProt P25025).
T1 sequence (P25025 1-360): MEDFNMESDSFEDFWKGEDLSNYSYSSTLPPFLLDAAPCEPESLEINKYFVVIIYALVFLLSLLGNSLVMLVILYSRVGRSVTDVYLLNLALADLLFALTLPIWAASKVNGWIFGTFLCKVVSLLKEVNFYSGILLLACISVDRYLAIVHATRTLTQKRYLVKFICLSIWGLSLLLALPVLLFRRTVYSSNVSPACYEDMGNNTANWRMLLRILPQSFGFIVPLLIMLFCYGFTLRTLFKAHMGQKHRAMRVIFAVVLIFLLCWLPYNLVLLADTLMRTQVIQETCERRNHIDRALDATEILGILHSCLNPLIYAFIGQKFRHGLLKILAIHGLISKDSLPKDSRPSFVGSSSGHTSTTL
Nature of the assay: GPCR Arrestin Assay (DiscoveRX PathHunter), CXCR2. Format: cell-based. Also noted: host or cells: PathHunter CHO cell lines. On the procedure: Certain compounds of the invention were also tested by DiscoveRX Corporation (42501 Albrae Street, Fremont, Calif. 94538, United States) in their GPCR Arrestin Assay to determine their activity against a panel of receptors including CXCR2 and CXCR1. PathHunter CHO cell lines were expanded from freezer stocks according to standard procedures. Cells were seeded in a total volume of 20 μL into white walled, 384-well microplates and incubated at 37° C. for the appropriate time prior to testing. The cells were pre-incubated with antagonist followed by agonist challenge at the EC80 concentration. Intermediate dilution of sample stocks was performed to generate 5× sample in assay buffer. 5 μL of 5× sample was added to cells and incubated at 37° C. or room temperature for 30 minutes. […] Assay signal was generated through a single addition of 12.5 or 15 μL (50% v/v) of PathHunter Detection reagent cocktail, followed by one hour incubation at room temperature. Microplates were read following signal generation with a PerkinElmer Envision™ instrument for chemiluminescent signal detection. Compound activity was analyzed using CBIS data analysis suite (ChemInnovation, Calif.).

A further assay relates to HCT116 cell line. In words: Colorectal cancer cell line proliferation assay, HCT116. In kind it is cell-based. The conditions noted are these: HCT116, compound alone 8.5 μM, non-significant. Here is the method: Cell proliferation assay: Cells were seeded in 96-well plates (Costar) at different cell densities: HCT116, 500 cells per well; Caco-2, 1000 cells per well. Total volume of the medium was 90 μl per well. Cells were incubated for 24 hours at 37° C. and 5% CO2 incubator. […] The final concentration of the Compound of Formula (A) was 8.5 μM. […] The cell proliferation rate was measured by adding 100 μl of CellTiter-Glo™ (Promega) according to the manufacturer's instructions. After 10 minutes of incubation, the cell lysates were transferred into OptiPlate-384 well, the luminescence was recorded by BioTek Synergy™ 4 Hybrid Microplate Reader with Gen5 software. All data points were generated in five replicates. Three independent experiments were performed. […] All data were presented as the mean±standard error of the mean determined from three independent experiments.

Another assay has as its target T2, CXCR1 receptor (Homo sapiens, UniProt P25024).
T2 sequence (P25024 1-350): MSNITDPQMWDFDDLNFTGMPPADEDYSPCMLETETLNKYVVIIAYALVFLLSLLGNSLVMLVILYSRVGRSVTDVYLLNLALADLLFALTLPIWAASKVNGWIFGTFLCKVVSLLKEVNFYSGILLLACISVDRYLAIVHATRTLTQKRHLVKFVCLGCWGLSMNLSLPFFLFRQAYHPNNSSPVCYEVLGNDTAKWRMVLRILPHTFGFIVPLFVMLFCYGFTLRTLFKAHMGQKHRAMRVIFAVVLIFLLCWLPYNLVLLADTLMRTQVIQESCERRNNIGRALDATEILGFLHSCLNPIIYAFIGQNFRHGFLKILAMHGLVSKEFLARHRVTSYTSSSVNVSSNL
Nature of the assay: Receptor binding assay ([125I] IL-8 SPA), CXCR1. Also noted: expressed in transfected cells; host or cells: CHO cells (membranes). The following applies: [125I] IL-8 binding, CHO-CXCR1 membranes; read-out: pIC50 against the CXCR1 receptor (converted). On the procedure: [^125I] IL-8 (human recombinant, IM249) was obtained from Amersham Corp., Arlington Heights, Ill., with specific activity 2000 Ci/mmol. All other chemicals were of analytical grade. High levels of recombinant human CXCR1 and CXCR2 receptors were individually expressed in Chinese hamster ovary (CHO) cells as described in Holmes, et al., Science, 1991, 253, 1278, incorporated herein to the extent required to perform the present assay. The Chinese hamster ovary membranes were prepared according to Haour, et al., J. Biol. Chem., 249 pp 2195-2205 (1974), incorporated herein to the extent required to perform the present assay, except that the homogenization buffer was changed to 40 mM Tris-HCL pH 7.5 containing 1 mM MgSO4, 0.5 mM EDTA (ethylene-diaminetetra-acetic acid), 1 mM PMSF (α-toluene-sulphonyl fluoride), 2.5 mg/L Leupeptin and 0.1 mg/ml Aprotinin. Membrane protein concentration was determined using Bio-Rad Reagent using bovine serum albumin as a standard. All binding assays were conducted using Scintillation Proximity Assay (SPA assay) using wheatgerm agglutinin beads in a 96-well micro plate (optiplate 96, Packard) format. […] The 96-well plates were incubated on a shaking platform for 1 hour. At the end of the incubation the plates were spun for 5 min at 2000 RPM, and counted in a Top Count counter.

For assay [2], the target named is T1, CXCR2 receptor. Nature of the assay: Receptor binding assay ([125I] IL-8 SPA), CXCR2. Further details: expressed in transfected cells; host or cells: CHO cells (membranes).
Method: High levels of recombinant human CXCR1 and CXCR2 receptors were individually expressed in Chinese hamster ovary (CHO) cells as described in Holmes, et al., Science, 1991, 253, 1278, incorporated herein to the extent required to perform the present assay. The Chinese hamster ovary membranes were prepared according to Haour, et al., J. Biol. Chem., 249 pp 2195-2205 (1974), incorporated herein to the extent required to perform the present assay, except that the homogenization buffer was changed to 40 mM Tris-HCL pH 7.5 containing 1 mM MgSO4, 0.5 mM EDTA (ethylene-diaminetetra-acetic acid), 1 mM PMSF (α-toluene-sulphonyl fluoride), 2.5 mg/L Leupeptin and 0.1 mg/ml Aprotinin. Membrane protein concentration was determined using Bio-Rad Reagent using bovine serum albumin as a standard. All binding assays were conducted using Scintillation Proximity Assay (SPA assay) using wheatgerm agglutinin beads in a 96-well micro plate (optiplate 96, Packard) format. The CHO-CXCR2 and CHO-CXCR1 membranes were pre-incubated with the beads in binding buffer; 20 mM Bis Tris propane, pH 8 containing 25 mM NaCl, 1 mM MgSO4, 0.1 mM EDTA at 4° C. for 30 min prior to assay. The compound was diluted in 100% DMSO at 20 times the final concentration (final 1 nM to 1000 nM and 5% DMSO). […] At the end of the incubation the plates were spun for 5 min at 2000 RPM, and counted in a Top Count counter.
Assay [3] deals with Sprague-Dawley rats. Nature of the assay: CXCR2 antagonist effect on repeat dosing oxaliplatin induced sensory injury rat. The conditions noted are these: oxaliplatin-treated rats, 20 mg/kg p.o. b.i.d. 4 weeks.
Method: Male Sprague-Dawley rats (109-167 g, ˜5weeks old) were housed in cages in groups of three in a controlled environment of constant temperature and moisture (temperature: 25±3° C., light: dark cycle of 12:12 hours) with food (25 g/rat/day of LabDiet 5053) and water available ad libitum.
MC (Sigma Cat #423238) was made up in water at 1% (w/v) (1 g per 100 mL water) and left on a stirrer until completely dissolved. The formulation was prepared every 6-8 days in 400-700 mL each time and stored at 4° C. protected from light. The dosing volume used was 10 mL/kg to give a 20 mg/kg p.o. dose. Vehicle treated animals were dosed b.i.d. with 1% MC w/v at 10 mL/kg p.o.
A fresh solution was prepared before every injection. Control vehicle animals were treated with 5% w/v Gluclose at 5ml/kg. Glucose (Sigma Aldrich Cat #G7021) was made up in milli-Q water at 5% (w/v) (5 g per 100 mL water) and left on a stirrer until completely dissolved.
Body weight tracking: The bodyweights of rats were measured twice a week for 4 weeks on Days 1, 3, 9, 11, 16, 18, 23, and 25. […]
Rats were anesthetized with chloral hydrate (350 mg/kg, 3.5 mL/kg, i.p.). […] The right sciatic nerve was carefully identified and conduction velocity was measured by recording action potentials from an electrode placed between the second and third digits as described by Jamieson et al., Br. J. Cancer, 88(12):1942-7 (2003), and electrically stimulating the nerve (5V, 0.5 s, single-wave pulses) via a platinum wire electrode at the sciatic notch and ankle. The length between the sciatic notch and ankle was measured.
The nerve conduction velocity was calculated as the length between sciatic notch and ankle divided by the difference between the time latencies at the stimulation sites [latency (sciatic notch)−latency (ankle)].
A 1 cm segment of the left sciatic nerve (distal end) was located and carefully dissected out. […] The ratio of inner area over entire area of nerve fibers of sciatic nerves was then calculated as an indicator of thickness of myelin sheath of nerves.
For assay [4], the system named is Sprague-Dawley rats. Nature of the assay: CXCR2 antagonist effect on oxaliplatin-induced acute sensory injury rat (PWT, von Frey). Format: in vivo. On the procedure:
If the animal withdrew or lifted the paw upon stimulation, then a hair with force immediately lower than that tested was used. If no response was observed, then a hair with force immediately higher was tested.

In assay [5] the target is T1, CXCR2 receptor. Nature of the assay: Calcium mobilization assay (FLIPR, IL-8 induced). In kind it is cell-based. Also noted: expressed in transfected cells; host or cells: CHO-K1 cells. (Calcium assays in cells follow changes in intracellular calcium, usually with a dye or a luminescent sensor.)
Method: CHO-K1 cells, stably expressing CXCR2 and Gαl6, were grown to 80% confluency in DMEM/F12 (HAM's) 1:1, w/10% FCS (heat inactivated), w/2 mM L-glutamine, w/0.4 mg/ml G418 while maintained at 37° C. in a 5% CO2 incubator. Twenty four hours prior to conducting the assay, the cells were harvested and plated (40,000 cells per well) in a 96 well, black wall, clear bottom plate (Packard View) and returned to the CO2 incubator. On the day of the assay, compounds were serially diluted in 100% DMSO to 300× the desired assay concentration. Growth media was aspirated from the cells and replaced with 100 μL of load media (EMEM with Earl's salts w/LGlutamine, 0.1% BSA, (Bovunlinar Cohen Fraction V from Seriologicals Corp.), 4 uM Fluo-4-acetoxymethyl ester fluorescent indicator dye (Fluo-4 AM, from Molecular Probes) and 2.5 mM probenecid) and incubated for 1 hour at 37° C. in a CO2 incubator. Load media was aspirated and replaced with 100 μL of EMEM with Earl's salts w/L-Glutamine, 0.1% gelatin and 2.5 mM probenecid and incubated for an additional 10 min. Serially diluted compound (3 μL) in DMSO at 300× was transferred to a 96 well plate containing 297 micro liters of KRH (120 mM NaCl, 4.6 mM KCl, 1.03 mM KH2PO4, 25 mM NaHCO3, 1.0 mM CaCl2, 1.1 mM MgCl2, 11 mM glucose, 20 mM HEPES (pH 7.4)) w/2.5 mM probenecid and 0.1% gelatin (compound now at 3×). […]

For `CN1CCC(C)(S(=O)(=O)c2c(Cl)ccc(NC(=O)Nc3cccc(F)c3Cl)c2O)CC1` [Compound of Formula (D), 1-(4-chloro-3-((1,4-dimethylpiperidin-4-yl)sulfonyl)-2-hydroxyphenyl)-3-(2-chloro-3-fluorophenyl)urea], the “selectivity for CXCR2 over CXCR1” value at CXCR2 receptor [1] (GPCR Arrestin Assay e)) turned out to be 29 fold. Moreover, at CXCR2 receptor [1] (PathHunter CHO cells, agonist at EC80, read-out: pIC50 against the CXCR2 receptor (converted)), the IC50 is 100 nM.

Consider `O=C(Nc1ccc(Cl)c(S(=O)(=O)N2CCNCC2)c1O)Nc1cccc(F)c1Cl` [Compound of Formula (A), 1-(4-chloro-2-hydroxy-3-(piperazin-1-ylsulfonyl)phenyl)-3-(2-chloro-3-fluorophenyl)urea], for which, in the assay with HCT116 cell line, the “decrease of basal proliferation” value came to 8.9±0.7%. Also, the IC50 is 3160 nM on CXCR1 receptor and 15.8 nM on CXCR2 receptor [2] ([125I] IL-8 binding, CHO-CXCR2 membranes, read-out: pIC50 against the CXCR2 receptor (converted)). In addition, on CXCR2 receptor [2] (receptor binding assay a)), the “selectivity for CXCR2 over CXCR1” value is listed as 188 fold. The “sciatic nerve conduction velocity between sciatic notch and ankle” value in the assay on Sprague-Dawley rats [3] (Day 29-31, mean±SEM) amounted to 40.83±1.45 m/s. For the same compound, in the assay on Sprague-Dawley rats [3] (left sciatic nerve, mean±SEM), the “ratio of inner area over entire area of the nerve fibers (myelin sheath thickness)” value is 0.17±0.01. The “oxaliplatin induced mechanical allodynia (PWT) vs oxaliplatin and vehicle group” value in the assay with Sprague-Dawley rats [4] (Day 3, 5, 20 and 50 mg/kg p.o. b.i.d. from Day -1) is listed as “reduced the mechanical allodynia”; in the assay on Sprague-Dawley rats [4] (Day 7, 20 and 50 mg/kg p.o. b.i.d. only), “robust reduction of the mechanical allodynia”. In addition, the Kb at CXCR2 receptor [5] is 3.98 nM.
